The target of this assay is T1, Purine nucleoside phosphorylase (Homo sapiens) (UniProt P00491).
T1 sequence (whole entry): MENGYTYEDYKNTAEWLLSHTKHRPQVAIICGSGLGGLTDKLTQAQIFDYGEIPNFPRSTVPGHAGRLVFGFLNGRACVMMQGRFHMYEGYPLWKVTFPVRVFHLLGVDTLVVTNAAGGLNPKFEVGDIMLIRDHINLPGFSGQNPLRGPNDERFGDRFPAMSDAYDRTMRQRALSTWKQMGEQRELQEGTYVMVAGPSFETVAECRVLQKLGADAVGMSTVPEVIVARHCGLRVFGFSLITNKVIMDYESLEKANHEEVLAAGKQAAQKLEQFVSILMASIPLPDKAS
The note with it: Urine.

In the case of `OC[C@H]1CN(Cc2n[nH]c3c(O)ncnc23)CC1O` (stereo partly specified), the NS entry is “No slow onset”.

Source of the values: ChEMBL document CHEMBL1144941, “Synthesis of second-generation transition state analogues of human purine nucleoside phosphorylase” (J Med Chem, 2003).
